Measured values published in ChEMBL document CHEMBL1157501, “Novel fluorinated acridone derivatives. Part 1: synthesis and evaluation as potential anticancer agents” (Bioorg Med Chem Lett, 2008).

Columns and labels:
T47D = assay: Growth inhibition of human T47D cells at 10 uM relative to control; type: functional
SNB-75 = assay: Growth inhibition of human SNB75 cells at 10 uM relative to control; type: functional
A549 = assay: Growth inhibition of human A549 cells at 10 uM relative to control; type: functional
[1] = Growth inhibition of human HL60(TB) cells at 10 uM relative to control; type: functional, HL-60(TB); settings: HL-60
HCT-116 = assay: Growth inhibition of human HCT116 cells at 10 uM relative to control; type: functional
BT-20 = assay: Antiproliferative activity against human BT20 cells after 72 hrs by Alamar Blue assay; type: functional, cell-based; settings: BT-20, 72 h
HT-29 = assay: Growth inhibition of human HT29 cells at 10 uM relative to control; type: functional
SW480 = assay: Antiproliferative activity against human SW480 cells after 72 hrs by Alamar Blue assay; type: functional, cell-based; settings: SW480, 72 h
UACC-257 = assay: Growth inhibition of human UACC257 cells at 10 uM relative to control; type: functional
CAKI-1 = assay: Growth inhibition of human CAKI1 cells at 10 uM relative to control; type: functional
SK-MEL-28 = assay: Growth inhibition of human SK-MEL-28 cells at 10 uM relative to control; type: functional
SF-295 = assay: Growth inhibition of human SF295 cells at 10 uM relative to control; type: functional
MCF7 = assay: Growth inhibition of human MCF7 cells at 10 uM relative to control; type: functional
BT-549 = assay: Antiproliferative activity against human BT549 cells after 72 hrs by alamar blue assay; type: functional, cell-based; settings: BT-549, 72 h
786-0 = assay: Growth inhibition of human 786-0 cells at 10 uM relative to control; type: functional
HOP-92 = assay: Growth inhibition of human HOP92 cells at 10 uM relative to control; type: functional
Jurkat = assay: Antiproliferative activity against human Jurkat cells after 72 hrs by Alamar Blue assay; type: functional, cell-based
MOLT-4 = assay: Growth inhibition of human MOLT4 cells at 10 uM relative to control; type: functional
CCRF-CEM = assay: Growth inhibition of human CCRF-CEM cells at 10 uM relative to control; type: functional

| Structure (SMILES) | inhibition at 10 µM (T47D) [%] | inhibition at 10 µM (SNB-75) [%] | inhibition at 10 µM (A549) [%] | inhibition at 10 µM [1] [%] | inhibition at 10 µM (HCT-116) [%] | IC50 (BT-20) [µM] | inhibition at 10 µM (HT-29) [%] | IC50 (SW480) [µM] | inhibition at 10 µM (UACC-257) [%] | inhibition at 10 µM (CAKI-1) [%] | inhibition at 10 µM (SK-MEL-28) [%] | inhibition at 10 µM (SF-295) [%] | inhibition at 10 µM (MCF7) [%] | IC50 (BT-549) [µM] | inhibition at 10 µM (786-0) [%] | inhibition at 10 µM (HOP-92) [%] | IC50 (Jurkat) [µM] | inhibition at 10 µM (MOLT-4) [%] | inhibition at 10 µM (CCRF-CEM) [%] |
| --- | --- | --- | --- | --- | --- | --- | --- | --- | --- | --- | --- | --- | --- | --- | --- | --- | --- | --- | --- |
| Cc1c2c(nc3ccc(Cl)cc13)CC(C(F)(F)F)CC2=O (configuration not stated) | 43 | < 20 | < 20 | < 20 | < 20 | 6.7 | 43 | 15.3 | < 20 | < 20 | < 20 | < 20 | 95 | 12.1 | < 20 | 58 | 5.1 | 95 | – |
| O=C1CC(C(F)(F)F)Cc2nc3ccc(Br)cc3c(-c3ccccc3F)c21 (configuration not stated) | < 20 | < 20 | < 20 | 29 | 35 | 23.3 | < 20 | 15.5 | < 20 | 45 | < 20 | < 20 | < 20 | 17.4 | 62 | 48 | 11.6 | < 20 | 28 |
| O=C1CC(C(F)(F)F)Cc2nc3ccccc3c(-c3ccccc3)c21 (configuration not stated) | < 20 | < 20 | < 20 | 45 | 70 | – | < 20 | – | 77 | < 20 | < 20 | < 20 | < 20 | – | < 20 | 70 | – | < 20 | < 20 |
